Entries after “also recorded” stand apart in the source; their conditions may differ.
Experiments:
Format in all cases: in vivo, mouse
LPA2 receptor = test: Mechanical stimulus-induced pain test (digitized von Frey) in SART (ICS) stress mice given LPA2 AS-ODN/MS-ODN i.c.v.
ATX = test: Mechanical nociception test (automated digitized von Frey) in ICS stress mice given ATX-AS/ATX-MS i.c.v.; conditions: P1 to P12 after ICS stress; 10 μg/5 μl i.c.v.
Method: ATX-antisense is a drug that suppresses the synthesis of the mRNA of ATX, an LPA synthetase. The ATX-antisense (ATX-AS) used was designed to have the base sequence: “5′-GTCTTGCCATGCCGAGGGAT-3′ (SEQ ID NO:13)”, and the ATX-missense (ATX-MS) used was designed to have the base sequence: “5′-GTTCTCGCAGTCGCAGGAGT-3′ (SEQ ID NO:14)”. The dosage was 10 μg/5 μl both for the antisense and for the missense.
ATX-antisense (operon, 3170003) was given by intracerebroventricular administration on consecutive days starting five days previously, including days of stress loading (FIG. 8A). Doses were given in solution in artificial cerebro-spinal fluid. For control groups, the same amounts of ATX-missense (operon, 3170004) and the solvent were administered, respectively. […]
(§1) Prior to the experiment, each mouse was placed on a rack on a mesh and covered with a cage from above, and the animal was acclimated to the same environment as the experiment for not less than 1 hour. The tip of a plastic chip was pressed vertically against the center of a hind paw of the mouse from below the rack; when the mouse behaved to withdraw the hind leg, the automatically measured value was read. […]
(§2) With the day of completion of ICS loading as P1, pain threshold values were measured on P3, P5, P12 and P19.

LPA1 receptor = test: Mechanical stimulus-induced pain test (digitized von Frey) in SART (ICS) stress mice given LPA1 AS-ODN/MS-ODN i.c.v.
Method: Exposure to SART (ICS) stress was achieved by repeatedly altering extremely different rearing environmental temperatures. Temperature settings were established at room temperature (24° C.) and cold temperature (4° C.). Rearing cages were placed in environments set at the respective temperatures; the animals were reared, with transfer of the mice only every 30 minutes in the daytime (from 10:00 to 16:30), and at the cold temperature in the nighttime (from 16:30 to 10:00 on the following day). This repeated stress was given for 3 days from 16:30 on the day before stress loading to 10:00 on day 3 of stress loading. A solid food and agar for water supply were always kept in the cage during the above-described stress loading period, to maintain an environment allowing the animals to have free access thereto.
A hypersensitive response induction experiment with ICS stress was applied to mice previously dosed with an antisense oligodeoxynucleotide that complementarily binds to the lysophosphatidic acid (hereinafter, denoted as LPA) receptor gene to inhibit the expression thereof (hereinafter, denoted as AS-ODN) as an animal model of generalized pain disease, and the stress exposure of Production Example 1 was performed.
Ten to twelve C57BL/6J mice at 6 weeks of age (20 to 22 g) were used in a normal control group and an ICS stress loading group.
Using “5′-[…]-3′ (SEQ ID NO:5)” as AS-ODN, BLAST search was performed; it was confirmed that the sequence thereof was specific for the LPA1 receptor. For comparative control, mice dosed with a missense oligodeoxynucleotide having a noncomplementary sequence (hereinafter, denoted as MS-ODN) and mice dosed with artificial cerebro-spinal fluid (ACSF) as Vehicle were used. Using “5′-[…]-3′ (SEQ ID NO:6)” as MS-ODN, BLAST search was performed; it was confirmed that the sequence thereof was not similar to other receptors.
SART (ICS) stress based on Production Example 1 above was loaded on the mice after being given ODN and ACSF, after which pain threshold values were measured, and changes over days were examined.
In Example 3, chronic pains were evaluated on mice loaded with stress based on Production Example and Examples. Regarding how to evaluate chronic pains, pain threshold values were evaluated over days by a mechanical stimulus-induced pain test. The mechanical stimulus-induced pain test was performed according to the digitized von Frey method.
AS-ODN was given by intracerebroventricular administration at 10 μg once daily, starting five days before SART (ICS) stress loading. After pretreatment for 5 consecutive days, SART (ICS) stress was started, and intracerebroventricular administration was performed once a day even during the stress loading period. However, there was no administration on day 3 of stress loading, after which administration was discontinued; a total of 7 administrations were performed. The single-dose volume was 5 μl.
In the same way as the above-described method of treatment, MS-ODN and Vehicle were administered 7 times in total before stress loading and during the stress loading period.
On mice acclimated to the environment on a 5 mm×5 mm-mesh net (adaptation-applied), a custom-made plastic chip was applied to a planta of each mouse under a constant pressure from below. At that time, responding weight threshold values were measured digitally.

PLA2 [1] = test: Mechanical nociception test (automated digitized von Frey) in ICS stress mice given BEL i.c.v.; conditions: between P1 and P5, significant change at P3, two doses
Method: (§3) As a PLA2 inhibitor, Bromoenol lactone (Cayman chemical) was used. Drug administration was performed twice in total at 10 a.m. before performing repeated cold stimulation in stress loading (FIG. 9A).
(§4) The whole amount of 5 mg of the drug was dissolved in 200 μl of DMSO and dispensed at 20 nmol/10 μl. 384 μl of artificial cerebro-spinal fluid was added thereto. For a control group, the same amounts of DMSO and artificial cerebro-spinal fluid were mixed and administered. Using a 50 μl Hamilton microsyringe and a needle-equipped cannula, a total volume of 5 μl was given by intracerebroventricular administration. A 26-gauge needle for intracerebroventricular administration was used.
(§5) To create a mouse model of fibromyalgia, ICS (Intermittent Cold Stress) was loaded. […]
as §1, §2

PLA2 [2] = test: Thermal nociception test (Hargreaves) in ICS stress mice given BEL i.c.v.; conditions: between P1 and P5, significant change at P3, two doses
Method: as §3, §4, §5
Prior to the experiment, each mouse was placed on a glass plate and covered with a cage from above, and the animal was acclimated to the same environment as the experiment for not less than 1 hour. A thermal stimulus was given to a hind paw of the mouse; when the mouse behaved to escape the stimulus, the automatically measured value was read. […]
as §2

[3] = SART (ICS) stress loading group
[4] = SART (ICS) stress loading group, day 1 of stress loading, 10 μg i.c.v. once daily
[5] = SART (ICS) stress loading group, day before stress loading, 10 μg i.c.v. once daily
[6] = SART (ICS) stress loading group, pretreated i.c.v.
[7] = treated normal control group (no stress), day 1 of stress loading

Compound	persistence of hypersensitive response (LPA2 receptor; [3])	pain threshold value (PWT) (LPA2 receptor; [4]) [g]	pain threshold value (PWT) (LPA2 receptor; [5]) [g]	pain threshold value (PWT) (LPA1 receptor; [4]) [g]	pain threshold value (PWT) (LPA1 receptor; [5]) [g]	further results
5′-TACTACAACGAGACCATCGG-3′ (DNA, backbone and methylation of C not given here) [LPA2 AS-ODN]	at least 19 days	6.43 ± 0.1	9.77 ± 0.5	–	–	suppression of SART (ICS) stress-induced pains (LPA2 receptor; [6]): no suppression
5′-GTTCTCGCAGTCGCAGGAGT-3′ (DNA GTTCTCGCAGTCGCAGGAGT; listed as DNA, chemistry not given here) [ATX-MS, ATX missense control oligonucleotide]	–	–	–	–	–	mechanical nociceptive response threshold values after ICS stress loading (ATX): significant reductions
5′-AGCTGCCATGACAGTGCTGT-3′ (DNA, backbone and methylation of C not given here) [LPA1 AS-ODN]	–	–	–	8.76 ± 0.5	9.77 ± 0.4	hypersensitive response / chronic pain after SART (ICS) stress, measured over days (LPA1 receptor; [6]): no hypersensitive responses were noted; also recorded: suppressed; threshold values of treated normal control group versus Vehicle and LPA1 MS-ODN groups (LPA1 receptor; normal control group (no stress)): comparable
5′-CGATACACTAGAACGCTCGA-3′ (DNA, backbone and methylation of C not given here) [MS-ODN]	at least 19 days	5.79 ± 0.1	9.58 ± 0.3	5.68 ± 0.7	9.59 ± 0.3	persistence of hypersensitive response (LPA1 receptor; [3]): at least 19 days; pain threshold value (PWT) (LPA1 receptor; [7]): 9.49 ± 0.2 g; pain threshold value (PWT) (LPA2 receptor; [7]): 9.65 ± 0.3 g
O=C1O/C(=C/Br)CCC1c1cccc2ccccc12 (stereo not shown) [BEL, Bromoenol lactone]	–	–	–	–	–	reductions of mechanical nociceptive response threshold values due to ICS stress (PLA2 [1]): tended to be suppressed; thermal hyperalgesia due to ICS stress (PLA2 [2]): tended to be suppressed
